According to paper PMC6627331, “Identification of Small Molecule Inhibitors of Staphylococcus aureus RnpA” (Antibiotics, 2019):
pIC50: −log10 of the molar value. In brackets after ≈: the same amount, converted by molar mass. Like-named read-outs stand apart in the source and are kept apart here.

Key:
[1] = biological target: T1, S. aureus RnpA (Staphylococcus aureus, UniProt P0A0H5); assay: RnpA-mediated in vitro spa mRNA degradation assay; assay type: biochemical
T1 construct: hexahistidine (His6) (N); made in house; host or cells: E. coli BL21 (DE3), plasmid pEXP5-nt
T1 sequence (P0A0H5 1-117): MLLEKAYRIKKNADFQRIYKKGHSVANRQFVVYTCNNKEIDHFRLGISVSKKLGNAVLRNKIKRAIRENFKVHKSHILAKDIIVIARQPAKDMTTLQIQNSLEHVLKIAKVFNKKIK
Description: RnpA-mediated RNA degradation assays were performed as previously described. Briefly, 1 pmol of spa mRNA was incubated with 5 pmol RnpA at 37 °C for 30 min in reaction buffer (50 mM Tris-HCl pH 8.0, 2 mM NaCl, 2 mM MgCl2) in the absence or presence of the indicated compound (≤500 µM). The inhibitory effects of the test compounds were calculated using Biorad ImageLab densitometry software to measure the signal intensity of the spa band in the negative control (spa alone), positive control (RnpA + spa + DMSO), and experimental samples (RnpA + spa + test compound) separated on a 1.2% formaldehyde-agarose gel. Background signal from the positive control sample sometimes resulted due to incomplete degradation of transcripts. Thus, the signal intensity of the positive control was taken into account when calculating the percent inhibition. The raw signals from the positive (+RnpA) and negative (-RnpA) controls were converted into percentage, by normalizing the positive control (+RnpA) signal to 0% RnpA inhibition and the negative control (-RnpA) to 100% RnpA inhibition. Similarly, the raw signals from the test compounds were reported as percent RnpA inhibition using the following equation: [(experimental−positive control)/(negative control−positive control)] × 100. […] To assess IC50, % RnpA degradation inhibition was plotted against compound concentration; a linear best fit equation was generated and utilized to calculate the IC50.

[2] = test system: S. aureus UAMS-1; assay: Minimum inhibitory concentration (MIC) testing; assay type: cell-based, Staphylococcus aureus
Description: Minimum inhibitory concentration (MIC) testing was performed using to Clinical & Laboratory Standards Institute (CLSI) guidelines. Accordingly, individual wells of a 96-well microtiter plate were inoculated with 10^4 colony forming units (CFU) of S. aureus UAMS-1 containing two-fold increasing concentrations (0 to 256 μg·mL^−1) of the indicated antibiotic or putative RnpA inhibitor compound, and incubated at 37 °C for 16 h in MHB. The MIC was defined as the lowest concentration of compound in which there was no visible bacterial growth in the well.

[3] = biological target: T2, S. aureus RNase P (RnpA + rnpB) (Staphylococcus aureus, UniProt P0A0H5); assay: RnpA-dependent RNase P in vitro ptRNA^Tyr processing assay; assay type: biochemical; conditions: in vitro ptRNA^Tyr processing; for pIC50: read-out: Processing IC50
T2 construct: hexahistidine (His6) (N); made in house; host or cells: E. coli BL21 (DE3), plasmid pEXP5-nt
T2 sequence (P0A0H5 1-117): T1 sequence (P0A0H5 1-117)
Description: S. aureus RNase P activity assays were performed according to conditions described previously. Briefly, ptRNA^Tyr and rnpB RNA species were first denatured by heating to 95 °C for 5 min then slow cooled to room temperature. RNase P was reconstituted by mixing an equal molar ratio of rnpB and RnpA for 15 min at 37 °C. Precursor tRNA processing inhibition reactions were performed by mixing 1.25 pmol of reconstituted RNase P (RnpA + rnpB) with an equal volume of 2× low salt buffer (50 mM Tris-HCl pH 8.0, 5 mM MgCl2) in the presence of DMSO (negative control) or the indicated compound (≤500 µM) and incubated for 5 min at 37 °C. 5 pmol ptRNA^Tyr was added and the mixture was incubated at 37 °C 15 min. Reactions were stopped by adding 2× RNA loading dye and heating at 65 °C for 10 min. Each sample was electrophoresed in a 7 M urea/8% polyacrylamide gel then stained with ethidium bromide. The Biorad EZ Gel Doc imaging system was used to visualize the RNA and relative abundance of the mature tRNA^Tyr band (% processing) in the negative control or in samples containing the indicated compounds and analyzed using Biorad Image Lab densitometry software. The inhibitory activity of the indicated compounds were calculated as a % inhibition using the following equation: […].
To assess IC50, % RNase P processing inhibition was plotted against compound concentration and a linear best fit equation was generated to calculate the IC50.

[4] = test system: norA mRNA in S. aureus UAMS-1 cells; assay: Cellular norA mRNA turnover (qRT-PCR after rifampin arrest); assay type: cell-based, Staphylococcus aureus; conditions: 0.5× MIC for 30 min, 5 min post-transcriptional arrest; for norA mRNA degradation: mock 99%
Description: S. aureus mRNA half-life determinations were performed as previously described. […] Rifampin (Sigma-Aldrich) was added to the culture at a final concentration of 200 μg·mL^−1 to inhibit de novo transcript synthesis. Half of the culture was immediately removed and combined with an equal volume of ice cold acetone:ethanol (1:1 v/v). The remaining culture was returned to the shaking 37 °C incubator for an additional 5 min and then subsequently combined with an equal volume of ice cold acetone:ethanol (1:1 v/v) and stored at −80 °C until processing, as described below.
For total bacterial RNA isolation, cell suspensions were thawed on ice, centrifuged at 3000 rpm for 10 min at 4 °C, the resulting cell pellets were resuspended in ice-cold TE buffer (10 mM Tris-HCl, pH 8.0, 1 mM EDTA), and transferred into a FastPrep bead beater tube containing 0.1 mm silica spheres (MP Biomedicals; Santa Ana, CA, USA). Mixtures were homogenized at 5 m·s^−1 for 20 s, rested on ice for 5 min, and then homogenized again at 4.5 m·s^−1 in a FastPrep-24 instrument. Cellular debris were collected by centrifugation at 13,000 rpm for 15 min at 4 °C, whereas bacterial RNA was isolated from the supernatant using Qiagen RNeasy Mini Kits and miRNeasy Mini Kits were used to isolate total bacterial RNA, following the manufacturer’s instructions. RNA quantity and quality were measured using a NanoDrop 2000 spectrophotometer (ThermoFisher Scientific). For qRT-PCR, 1 μg of total bacterial RNA was treated with 3 units of DNase I (Ambion; Carlsbad, CA, USA) for 1 h at 37 °C to remove any DNA contaminants. RNA cleanup was performed using the Qiagen RNeasy Mini Kit. Subsequently, the BioRad iScript cDNA Synthesis Kit (Hercules, CA, USA) was used to convert 200 ng of RNA into cDNA, which was amplified using the BioRad iQ SYBR Green Supermix per the manufacturer’s instructions and fluorescence was read on the Biorad CFX 96 Connect machine. Transcript levels were compared to the internal control 16S rRNA (ΔΔCt method), and plotted as a fold change compared to control. The following primer pairs were used in this study for qRT-PCR: norA forward—[…] and norA reverse-[…] CTAAG; -15 ptRNA^Tyr forward-[…] and tRNA^Tyr reverse-TGGTG […]; 16S rRNA forward-[…] and 16S rRNA reverse-[…].

[5] = test system: HepG2 cells; assay: MTT human cell cytotoxicity testing; assay type: cell-based; conditions: SAR figures; 4× MIC exposure for 24 h
Description: Human HepG2 hepatocytes were seeded in individual wells of a 96-well cell-culture treated microtiter plate at a concentration of 1 × 10^5 cells per well and incubated in Dulbecco’s Modified Eagle Medium (DMEM) supplemented with 10% fetal bovine serum at 37 °C with 5% carbon dioxide overnight. Cells were then treated with DMSO (negative control) or the indicated agent for 24 h. MTT Cell Proliferation Assay Kits were used to assess viability according to the manufacturer’s recommendations (American Type Culture Collection; Manassas, VA, USA).

[6] = test system: S. aureus UAMS-1; assay: Galleria mellonella model of S. aureus infection; assay type: in vivo; conditions: 10^4 CFU UAMS-1, single dose 100 mg·kg^−1 1 h post-infection, 16 h; DMSO 60%
Description: (§1) An overnight culture of S. aureus strain UAMS-1 was used to inoculate (1:100 dilution) 25 mL of fresh MH medium and growth at 37 °C on a rotary shaker at 225 rpm to exponential phase (~1 × 10^8 CFU mL^−1). Cultures were pelleted by centrifugation, washed with phosphate buffered saline (PBS), and re-suspended at ~1 × 10^7 CFU·mL^−1 in fresh PBS. G. mellonella larvae weighing 150–250 mg were inoculated with 5 µL of S. aureus into the last left proleg using a 10 µL Hamilton syringe. About 1 h after inoculation, one group of worms was treated with 2 µL DMSO as infected negative control; one group was treated with 2 µL JC2 compound at 100 mg/kg dose; another group was treated with 2 µL vancomycin at 100 mg/kg dose as standard-of-care comparison. Treatments were administered in the same manner as infection, except that each injection was in the next left proleg moving towards the head of the worm. […] In addition to the mock or compound treatment of infected larvae, a group of non-infected worm injected with DMSO or corresponding compounds were used to monitor the impact of physical trauma as well as observe toxicity associated with compound treatment.

[7] = test system: Galleria mellonella; assay: Galleria mellonella single tolerated dose (uninfected worms); assay type: in vivo; conditions: single dose 100 mg·kg^−1, 16 h
Description: as §1

[8] = test system: S. aureus RN4220 pML100::rnpA-KD; assay: Cellular RnpA depletion hypersusceptibility growth curve; assay type: cell-based, Staphylococcus aureus; conditions: […] MIC JC2 or 0.5× MIC RNPA2000
Description: 100 μL of each culture was transferred to a 96 well flat bottom plate in duplicate and growth monitored by OD600 reading every 30 min over 8 h at 37 °C. Hypersusceptibility growth curves were averaged from two biological replicates in technical duplicate.

[9] = test system: ptRNA^Tyr levels in S. aureus UAMS-1 cells; assay: Cellular ptRNA^Tyr accumulation (qRT-PCR); assay type: cell-based, Staphylococcus aureus; conditions: 1× MIC; 30 min or 1 h
Description: ptRNA^Tyr cellular pools were measured, as previously described. […] The culture was immediately removed, combined with an equal volume of ice cold acetone:ethanol (1:1 v/v) and stored at −80 °C until processing, as described below.
For total bacterial RNA isolation, cell suspensions were thawed on ice, centrifuged at 3000 rpm for 10 min at 4 °C, the resulting cell pellets were resuspended in ice-cold TE buffer (10 mM Tris-HCl, pH 8.0, 1 mM EDTA), and transferred into a FastPrep bead beater tube containing 0.1 mm silica spheres (MP Biomedicals; Santa Ana, CA, USA). Mixtures were homogenized at 5 m·s^−1 for 20 s, rested on ice for 5 min, and then homogenized again at 4.5 m·s^−1 in a FastPrep-24 instrument. Cellular debris were collected by centrifugation at 13,000 rpm for 15 min at 4 °C, whereas bacterial RNA was isolated from the supernatant using Qiagen RNeasy Mini Kits and miRNeasy Mini Kits were used to isolate total bacterial RNA, following the manufacturer’s instructions. RNA quantity and quality were measured using a NanoDrop 2000 spectrophotometer (ThermoFisher Scientific). […] Subsequently, the BioRad iScript cDNA Synthesis Kit (Hercules, CA, USA) was used to convert 200 ng of RNA into cDNA, which was amplified using the BioRad iQ SYBR Green Supermix per the manufacturer’s instructions and fluorescence was read on the Biorad CFX 96 Connect machine. […]

[10] = Staphylococcus aureus, UAMS1, 16 h, Table S1, mupirocin synergy screening initial hits, read-out: MIC
[11] = Staphylococcus aureus, UAMS1, SAR figures, S. aureus UAMS-1, read-out: MIC

Structure (SMILES)	pIC50 ([1]; read-out: Degradation IC50)	MIC [2, 10]	MIC [2, 11]	pIC50 [3]	norA mRNA degradation [4]	MTT = % HepG2 cell survival [5]	other results
CCC1CCCCN1C(=O)Nc1cc(Cl)cc(Cl)c1 (stereo not shown) [JC3]	3.30	1 µg/mL	1 µg/mL (≈ 3.32 µM)	3.76	did not reduce cellular norA mRNA degradation	57.9%	effect on RnpA mRNA degradation activity (in words) [1]: no appreciable effect; MIC ([2]; S. aureus UAMS-1, 16 h in MHB, listed as 9044688): 1 µg/mL (≈ 3.32 µM)
CC1CCN(C(=O)Nc2cc(Cl)cc(Cl)c2)CC1 [JC1]	3.96	1 µg/mL	1 µg/mL (≈ 3.48 µM)	3.68	did not reduce cellular norA mRNA degradation	63%	MIC ([2]; S. aureus UAMS-1, 16 h in MHB, listed as 9044791): 1 µg/mL (≈ 3.48 µM)
CCC1CCCCN1C(=O)Nc1cccc(Cl)c1 (stereo not shown) [JC3b]	≥ 3.30	–	32 µg/mL (≈ 120 µM)	≥ 3.30	did not reduce cellular norA mRNA degradation	82.8%	pIC50 ([1]; SAR figures, read-out: dIC50 = degradation IC50): 3.46; IC50 ([3]; SAR figures, read-out: pIC50 = processing IC50 (converted)): 500 µM
CN[C@H](CC(C)C)C(=O)N[C@H]1C(=O)N[C@@H](CC(N)=O)C(=O)N[C@H]2C(=O)N[C@H]3C(=O)N[C@H](C(=O)N[C@H](C(=O)O)c4cc(O)cc(O)c4-c4cc3ccc4O)[C@H](O)c3ccc(c(Cl)c3)Oc3cc2cc(c3O[C@@H]2O[C@H](CO)[C@@H](O)[C@H](O)[C@H]2O[C@H]2C[C@](C)(N)[C@H](O)[C@H](C)O2)Oc2ccc(cc2Cl)[C@H]1O [vancomycin, reference compound]	–	–	–	–	–	–	mortality rate of S. aureus infected worms [6]: 40%; mortality rate of uninfected worms [7]: 10%
CC(C)c1ccc(OCC(=O)NNC(=S)NC(=O)c2ccco2)cc1 [RNPA2000, reference compound]	–	–	–	–	–	–	growth of RnpA-depleted cells (RnpA-KD) versus vector cells [8]: hypersusceptibility; MIC ([2]; S. aureus UAMS-1, 16 h in MHB): 16 µg/mL (≈ 44.3 µM); cellular accumulation of precursor tRNA^Tyr in comparison to mock treated cells [9]: 2.31 fold; reduction of cellular norA mRNA degradation [4]: approximately 54%
